Measured values: ChEMBL document CHEMBL1212772 (2010)
Values after ≈ are worked out from the molar mass of the structure shown.

What was measured:
Type in all cases: functional
Acinetobacter baumannii [1] = test: Antimicrobial activity against wild type Acinetobacter baumannii OC 16708 deficient in beta-lactamase assessed as inhibition of growth by broth dilution method
Pseudomonas aeruginosa [2] = test: Antimicrobial activity against Pseudomonas aeruginosa OC 12115 expressing beta-lactamase SPM-1 and containing Carbapenemase assessed as inhibition of growth by broth dilution method
Klebsiella pneumoniae [3] = test: Antimicrobial activity against wild type Klebsiella pneumoniae OC 15263 expressing beta-lactamase SHV-1 assessed as inhibition of growth by broth dilution method
Serratia marcescens [4] = test: Antimicrobial activity against wild type Serratia marcescens OC 7555 deficient in beta-lactamase assessed as inhibition of growth by broth dilution method
Serratia marcescens [5] = test: Antimicrobial activity against wild type Serratia marcescens OC 7554 expressing beta-lactamase SME-3 and containing Carbapenemase assessed as inhibition of growth by broth dilution method
Pseudomonas aeruginosa [6] = test: Antimicrobial activity against Pseudomonas aeruginosa OC 7052 expressing beta-lactamase VIM-2 and containing Carbapenemase assessed as inhibition of growth by broth dilution method
Pseudomonas aeruginosa [7] = test: Antimicrobial activity against Pseudomonas aeruginosa OC 13996 expressing beta-lactamase IMP-1 and containing Carbapenemase assessed as inhibition of growth by broth dilution method
Pseudomonas aeruginosa [8] = test: Antimicrobial activity against Pseudomonas aeruginosa OC 4083 expressing beta-lactamase OXA-10 and containing Oxacillinase assessed as inhibition of growth by broth dilution method
Pseudomonas aeruginosa [9] = test: Antimicrobial activity against Pseudomonas aeruginosa OC 4352 overexpressing beta-lactamase AmpC assessed as inhibition of growth by broth dilution method
Klebsiella pneumoniae [10] = test: Antimicrobial activity against Klebsiella pneumoniae OC 4094 expressing extended-spectrum Beta-lactamase TEM-26 assessed as inhibition of growth by broth dilution method
Pseudomonas aeruginosa [11] = test: Antimicrobial activity against wild type Pseudomonas aeruginosa ATCC 27853 expressing beta-lactamase AmpC assessed as inhibition of growth by broth dilution method
Escherichia coli [12] = test: Antimicrobial activity against wild type Escherichia coli ATCC 25922 deficient in beta-lactamase assessed as inhibition of growth by broth dilution method
Escherichia coli [13] = test: Antimicrobial activity against Escherichia coli DH5-alpha expressing beta-lactamase TEM-1 assessed as inhibition of growth by broth dilution method
Klebsiella oxytoca = test: Antimicrobial activity against wild type Klebsiella oxytoca OC 4076 expressing Beta-lactamase K1 assessed as inhibition of growth by broth dilution method
Escherichia coli [14] = test: Antimicrobial activity against Escherichia coli OC 11732 expressing extended-spectrum beta-lactamase CTX-M-15 assessed as inhibition of growth by broth dilution method
Enterobacter cloacae = test: Antimicrobial activity against Enterobacter cloacae OC 4080 overexpressing beta-lactamase AmpC assessed as inhibition of growth by broth dilution method
Klebsiella pneumoniae [15] = test: Antimicrobial activity against Klebsiella pneumoniae OC 5367 expressing beta-lactamase KPC-2 and containing Carbapenemase assessed as inhibition of growth by broth dilution method
Escherichia coli [16] = test: Antimicrobial activity against Escherichia coli OC 6697 expressing beta-lactamase CMY-2 and containing plasmid AmpC assessed as inhibition of growth by broth dilution method
Klebsiella pneumoniae [17] = test: Antimicrobial activity against Klebsiella pneumoniae OC 4238 overexpressing beta-lactamase SHV-1 assessed as inhibition of growth by broth dilution method
Acinetobacter baumannii [18] = test: Antimicrobial activity against Acinetobacter baumannii OC 11738 expressing beta-lactamase OXA-23 and containing Carbapenemase assessed as inhibition of growth by broth dilution method

C[C@@H](O)[C@H]1C(=O)N2C(C(=O)O)=C(S[C@@H]3CN[C@H](CNS(N)(=O)=O)C3)[C@H](C)[C@H]12 [DORIPENEM]
MIC (Acinetobacter baumannii [1]): 0.25 µg/mL (≈ 0.595 µM) | MIC (Pseudomonas aeruginosa [2]): > 256 µg/mL | MIC (Klebsiella pneumoniae [3]): 0.06 µg/mL (≈ 0.143 µM) | MIC (Serratia marcescens [4]): 0.06 µg/mL (≈ 0.143 µM) | MIC (Serratia marcescens [5]): 128 µg/mL (≈ 304 µM) | MIC (Pseudomonas aeruginosa [6]): 32 µg/mL (≈ 76.1 µM) | MIC (Pseudomonas aeruginosa [7]): > 256 µg/mL | MIC (Pseudomonas aeruginosa [8]): 2 µg/mL (≈ 4.76 µM) | MIC (Pseudomonas aeruginosa [9]): 0.5 µg/mL (≈ 1.19 µM) | MIC (Klebsiella pneumoniae [10]): 0.12 µg/mL (≈ 0.285 µM) | MIC (Pseudomonas aeruginosa [11]): 0.5 µg/mL (≈ 1.19 µM) | MIC (Escherichia coli [12]): 0.03 µg/mL (≈ 0.0713 µM) | MIC (Escherichia coli [13]): 0.06 µg/mL (≈ 0.143 µM) | MIC (Klebsiella oxytoca): 0.06 µg/mL (≈ 0.143 µM) | MIC (Escherichia coli [14]): 0.06 µg/mL (≈ 0.143 µM) | MIC (Enterobacter cloacae): 0.25 µg/mL (≈ 0.595 µM) | MIC (Klebsiella pneumoniae [15]): 8 µg/mL (≈ 19 µM) | MIC (Escherichia coli [16]): 0.06 µg/mL (≈ 0.143 µM) | MIC (Klebsiella pneumoniae [17]): 0.06 µg/mL (≈ 0.143 µM) | MIC (Acinetobacter baumannii [18]): 32 µg/mL (≈ 76.1 µM)

CC(C)(O/N=C(\C(=O)N[C@@H]1C(=O)N2C(C(=O)[O-])=C(C[n+]3ccccc3)CS[C@H]12)c1csc(N)n1)C(=O)O [CEFTAZIDIME]
MIC (Acinetobacter baumannii [1]): 4 µg/mL (≈ 7.32 µM) | MIC (Pseudomonas aeruginosa [2]): > 256 µg/mL | MIC (Klebsiella pneumoniae [3]): 0.12 µg/mL (≈ 0.22 µM) | MIC (Serratia marcescens [4]): 0.5 µg/mL (≈ 0.915 µM) | MIC (Serratia marcescens [5]): 0.5 µg/mL (≈ 0.915 µM) | MIC (Pseudomonas aeruginosa [6]): 64 µg/mL (≈ 117 µM) | MIC (Pseudomonas aeruginosa [7]): > 256 µg/mL | MIC (Pseudomonas aeruginosa [8]): > 4 µg/mL | MIC (Pseudomonas aeruginosa [9]): 32 µg/mL (≈ 58.5 µM) | MIC (Klebsiella pneumoniae [10]): > 256 µg/mL | MIC (Pseudomonas aeruginosa [11]): 2 µg/mL (≈ 3.66 µM) | MIC (Escherichia coli [12]): 0.25 µg/mL (≈ 0.457 µM) | MIC (Escherichia coli [13]): 0.5 µg/mL (≈ 0.915 µM) | MIC (Klebsiella oxytoca): 1 µg/mL (≈ 1.83 µM) | MIC (Escherichia coli [14]): 32 µg/mL (≈ 58.5 µM) | MIC (Enterobacter cloacae): 32 µg/mL (≈ 58.5 µM) | MIC (Klebsiella pneumoniae [15]): 32 µg/mL (≈ 58.5 µM) | MIC (Escherichia coli [16]): > 128 µg/mL | MIC (Klebsiella pneumoniae [17]): 2 µg/mL (≈ 3.66 µM) | MIC (Acinetobacter baumannii [18]): > 256 µg/mL

C[C@@H](O)[C@H]1C(=O)N2C(C(=O)O)=C(S[C@@H]3CN[C@H](C(=O)N(C)C)C3)[C@H](C)[C@H]12 [MEROPENEM]
MIC (Acinetobacter baumannii [1]): 0.25 µg/mL (≈ 0.652 µM) | MIC (Pseudomonas aeruginosa [2]): > 256 µg/mL | MIC (Klebsiella pneumoniae [3]): 0.03 µg/mL (≈ 0.0782 µM) | MIC (Serratia marcescens [4]): 0.03 µg/mL (≈ 0.0782 µM) | MIC (Serratia marcescens [5]): 128 µg/mL (≈ 334 µM) | MIC (Pseudomonas aeruginosa [6]): 32 µg/mL (≈ 83.4 µM) | MIC (Pseudomonas aeruginosa [7]): > 256 µg/mL | MIC (Pseudomonas aeruginosa [8]): 2 µg/mL (≈ 5.22 µM) | MIC (Pseudomonas aeruginosa [9]): 0.5 µg/mL (≈ 1.3 µM) | MIC (Klebsiella pneumoniae [10]): 0.06 µg/mL (≈ 0.156 µM) | MIC (Pseudomonas aeruginosa [11]): 0.5 µg/mL (≈ 1.3 µM) | MIC (Escherichia coli [12]): 0.03 µg/mL (≈ 0.0782 µM) | MIC (Escherichia coli [13]): 0.03 µg/mL (≈ 0.0782 µM) | MIC (Klebsiella oxytoca): 0.06 µg/mL (≈ 0.156 µM) | MIC (Escherichia coli [14]): 0.03 µg/mL (≈ 0.0782 µM) | MIC (Enterobacter cloacae): 0.25 µg/mL (≈ 0.652 µM) | MIC (Escherichia coli [16]): 0.06 µg/mL (≈ 0.156 µM) | MIC (Klebsiella pneumoniae [17]): 0.03 µg/mL (≈ 0.0782 µM) | MIC (Acinetobacter baumannii [18]): 64 µg/mL (≈ 167 µM)

C[C@@H](O)[C@H]1C(=O)N2C(C(=O)O)=C(SCCNC=N)C[C@H]12 [IMIPENEM ANHYDROUS]
MIC (Acinetobacter baumannii [1]): 0.25 µg/mL (≈ 0.835 µM) | MIC (Pseudomonas aeruginosa [2]): > 256 µg/mL | MIC (Klebsiella pneumoniae [3]): 0.5 µg/mL (≈ 1.67 µM) | MIC (Serratia marcescens [4]): 0.25 µg/mL (≈ 0.835 µM) | MIC (Serratia marcescens [5]): > 256 µg/mL | MIC (Pseudomonas aeruginosa [6]): 64 µg/mL (≈ 214 µM) | MIC (Pseudomonas aeruginosa [7]): > 256 µg/mL | MIC (Pseudomonas aeruginosa [8]): 1 µg/mL (≈ 3.34 µM) | MIC (Pseudomonas aeruginosa [9]): 2 µg/mL (≈ 6.68 µM) | MIC (Klebsiella pneumoniae [10]): 0.5 µg/mL (≈ 1.67 µM) | MIC (Pseudomonas aeruginosa [11]): 2 µg/mL (≈ 6.68 µM) | MIC (Klebsiella oxytoca): 0.25 µg/mL (≈ 0.835 µM) | MIC (Escherichia coli [14]): 0.25 µg/mL (≈ 0.835 µM) | MIC (Enterobacter cloacae): 1 µg/mL (≈ 3.34 µM) | MIC (Klebsiella pneumoniae [15]): 16 µg/mL (≈ 53.4 µM) | MIC (Escherichia coli [16]): 0.5 µg/mL (≈ 1.67 µM) | MIC (Klebsiella pneumoniae [17]): 0.25 µg/mL (≈ 0.835 µM) | MIC (Acinetobacter baumannii [18]): 64 µg/mL (≈ 214 µM)
